We go through 10 molecules from ChEMBL document CHEMBL1201862, “PubChem BioAssay data set” (2004).

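Method: 48-hour compound exposure of cells in 96-well plates, five concentrations, linear interpolation of endpoints. Here, GI50 denotes the concentration required for 50% inhibition of growth.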 Activity calls are given as the source filed them. Cut-off read from the data, not from the text of the source: active = GI50 up to about 1.1 µM and inactive = higher. A value given as a limit tells only on which side of the number the result lay.

Holding throughout (assay): inhibition of tumour cell growth, NCI panel, 48 h
Test [1] relates to OVCAR-5.
Test [2] has as its system HL-60.
Test [3] has as its system UACC-257.
For test [4], the system named is SF-295.
Test [5] has as its system M14.
The subject of test [6] is UO-31.
Test [7] has as its system HT-29.
The test system of test [8] is RPMI-8226.
Test [9] concerns COLO 205.
Test [10] deals with SNB-19.
The test system of test [11] is M19-MEL.
For test [12], the system named is HCC 2998.
Test [13] deals with K562.
Test [14] has as its system A498.
The test system of test [15] is 786-0.
Test [16] relates to OVCAR-3.
The test system of test [17] is MDA-MB-435.
For test [18], the system named is PC-3.
For test [19], the system named is DU-145.
The subject of test [20] is BT-549.

Regarding `COc1ccc(OC2(c3cc(OC)ccc3OC)OC(=O)c3ccccc32)cc1` (stereo not drawn), the GI50 in test [1], in test [2], in [3], in test [4], in [5] and in [6] was > 100 µM (inactive) throughout. Further, the GI50 in [7], in test [8], in test [9], in [10], in test [11] and in [12] was > 100 µM (inactive) each time. The GI50 in test [13], in test [14], in test [15] and in [16] was > 100 µM (inactive) in each case.
In the case of `O=C1C=CC(=O)c2cc(Sc3ccccc3)c(=O)ccc21`, the GI50 in test [17] is 25.5 µM (inactive); in [18] it was 18.2 µM (inactive); in test [19], 17.4 µM (inactive); in test [1] it was 19.6 µM (inactive); in [2], 0.877 µM (active); in [3], 18 µM (inactive). Besides, the GI50 in test [4] was 8.36 µM (inactive); in test [5], 17.8 µM (inactive); in test [6], 11.7 µM (inactive); in [7] it was 20.6 µM (inactive); in test [8] it was 4.46 µM (inactive); in [9], 7.73 µM (inactive). Further, the GI50 in test [10] is 19.3 µM (inactive); in test [11], 16.6 µM (inactive); in test [12], 16.3 µM (inactive); in [13] it was 2.49 µM (inactive); in [14], 16.2 µM (inactive); in [15], 14.8 µM (inactive). Also, the GI50 in test [20] is 17.9 µM (inactive); in [16] it was 16.9 µM (inactive).
`CCCCCCCCCCCCCC(=O)OC1C(CO)OC(=O)C1O` (stereo not drawn): the GI50 in test [1] is > 100 µM (inactive); in [2] it was 34.3 µM (inactive); in test [3], > 100 µM (inactive); in [4], 58.3 µM (inactive); in test [5], > 100 µM (inactive); in test [6], 51.8 µM (inactive). Besides, the GI50 in [7] is > 100 µM (inactive); in test [8], > 100 µM (inactive); in test [9], > 100 µM (inactive); in [10], 71.4 µM (inactive); in test [11] it was > 100 µM (inactive); in test [12] it was > 100 µM (inactive). The GI50 is 34.7 µM (inactive) in test [13], > 100 µM (inactive) in [14], > 100 µM (inactive) in test [15] and > 100 µM (inactive) in test [16].
On to `O=C(O)C1=C(C(=O)Nc2ccc(NC(=O)C3=C(C(=O)O)C4C=CC3C4)cc2)C2C=CC1C2`, for which the GI50 in test [1], in test [2], in test [3], in test [4], in test [5] and in test [6] was > 100 µM (inactive) each time. Besides, the GI50 in test [7], in [8], in test [9], in test [10], in [11] and in test [12] was > 100 µM (inactive) throughout. Moreover, the GI50 was 54.5 µM (inactive) in [13], > 100 µM (inactive) in test [14], > 100 µM (inactive) in [15] and > 100 µM (inactive) in test [16].
Take `CC1=C(C(=O)CC(=O)C(=O)NC2C3CC4CC(C3)CC2C4)Sc2ccccc2N1` (stereo not drawn): the GI50 in [1] was > 100 µM (inactive); in test [2], > 100 µM (inactive); in [3], > 100 µM (inactive); in test [4], > 100 µM (inactive); in test [5], > 100 µM (inactive); in test [6] it was > 60.3 µM (inactive). In addition, the GI50 is > 100 µM (inactive) in test [7]; 74.6 µM (inactive) in [8]; > 31.6 µM (inactive) in test [9]; > 100 µM (inactive) in test [10]; > 100 µM (inactive) in test [11]; > 100 µM (inactive) in test [12]. Also, the GI50 is 84.3 µM (inactive) in test [13], > 100 µM (inactive) in test [14], > 100 µM (inactive) in test [15] and > 100 µM (inactive) in [16].
Regarding `CC(=O)OCC1C(=O)OCC1C(=O)N1Cc2cc3ccccc3nc2C1` (stereo not drawn), the GI50 is 2.42 µM (inactive) in test [17]; 7.45 µM (inactive) in test [18]; 4.5 µM (inactive) in test [19]; 5.69 µM (inactive) in [1]; 0.794 µM (active) in [2]; 2.47 µM (inactive) in test [3]. Besides, the GI50 in test [4] is 16.1 µM (inactive); in test [5], 1.56 µM (inactive); in test [6], 3.95 µM (inactive); in test [7], 2.78 µM (inactive); in [8] it was 1.37 µM (inactive); in test [9] it was 0.653 µM (active). The GI50 in test [10] was 17.7 µM (inactive); in test [11], 8.05 µM (inactive); in [12], 10.4 µM (inactive); in [13], 0.676 µM (active); in [14], 5.08 µM (inactive); in test [15], 1.58 µM (inactive). The GI50 is 2.17 µM (inactive) in test [20] and 1.57 µM (inactive) in [16].
`COc1cccc(NC(=O)/C(Cc2nc3ccccc3nc2C)=N/NC(=O)C[n+]2ccccc2)c1`: the GI50 is > 100 µM (inactive) in test [1]; > 100 µM (inactive) in test [2]; 45.4 µM (inactive) in test [3]; > 100 µM (inactive) in [4]; > 100 µM (inactive) in test [5]; > 100 µM (inactive) in test [6]. For the same molecule, the GI50 was > 100 µM (inactive) in test [7]; 26.5 µM (inactive) in [8]; 20.8 µM (inactive) in test [9]; > 100 µM (inactive) in [10]; > 100 µM (inactive) in [11]; > 100 µM (inactive) in test [12]. Besides, the GI50 in test [13] was 71.9 µM (inactive); in [14], > 100 µM (inactive); in [15] it was > 100 µM (inactive); in [16] it was > 100 µM (inactive).
As for `C/C(CC(=O)Nc1ccc(Cl)c(Cl)c1)=N/NC(=O)C[N+](C)(C)C`, the GI50 in test [1] was > 100 µM (inactive); in test [2], 44 µM (inactive); in test [3], > 100 µM (inactive); in test [4] it was > 100 µM (inactive); in test [5], > 100 µM (inactive); in [6], > 100 µM (inactive). Besides, the GI50 in test [7] was > 100 µM (inactive); in test [8], 25.8 µM (inactive); in test [9] it was 35.2 µM (inactive); in test [10], > 100 µM (inactive); in [11], > 100 µM (inactive); in [12], > 100 µM (inactive). The GI50 in test [13] was 46.1 µM (inactive); in [14], > 100 µM (inactive); in test [15], 56.5 µM (inactive); in test [16], > 100 µM (inactive).
With `COc1cc2c(cc1O)CN1CCC23C=C[C@@H](O)CC13` (stereo partly drawn), the GI50 in test [1] was > 100 µM (inactive); in test [2], 15.2 µM (inactive); in test [3] it was 79.4 µM (inactive); in test [4], 96.2 µM (inactive); in test [5], 41 µM (inactive); in test [6] it was > 100 µM (inactive). Also, the GI50 is 47.5 µM (inactive) in [7]; > 100 µM (inactive) in test [8]; 27.7 µM (inactive) in test [9]; 55.6 µM (inactive) in [10]; 38.1 µM (inactive) in test [11]; 56.9 µM (inactive) in [12]. Further, the GI50 in [13] is 51.3 µM (inactive); in [14], > 100 µM (inactive); in test [15], 76.4 µM (inactive); in [16], > 100 µM (inactive).
As for `COc1ccc(-c2cc(=O)c3c(O)c(O)c(OC)cc3o2)cc1O`, the GI50 in [1], in test [2], in test [3], in [4], in test [5] and in test [6] was > 100 µM (inactive) in each case. The GI50 in test [7], in test [8], in [9], in test [10], in test [11] and in test [12] was > 100 µM (inactive) in each case. For the same molecule, the GI50 in test [13], in test [14], in test [15] and in test [16] was > 100 µM (inactive) in each case.
